Results reported in patent US20260083125A1, “METHODS FOR MANAGING HERBICIDE VAPORIZATION” (AgQuam R&D, LLC, priority 2016, published 2026).

Legend:
[1] = system: Wheat; assay: Greenhouse study for weed control, wheat; format: in vivo; settings: Glyphosate 0.375 lb/acre; AMS 17 lb/100 gal; NIS, AQ 284, AQ 268 […] v/v; INTERLOCK 4 fl oz/acre
Method: (§1) A greenhouse study was conducted to test the efficacy of the AQ 284 combination water conditioning adjuvant and drift reduction composition compared to the commercial standard (INTERLOCK). Greenhouse research was conducted with individual plants growing in 3×3×3 inch pots. Greenhouse treatments were applied with a track sprayer using an 8002 E single nozzle applying 20 gpa.

[2] = system: Corn, Sunflower, Wheat; assay: Greenhouse study for weed control, average of corn, sunflower and wheat; format: in vivo; settings: Glyphosate 0.375 lb/acre; AMS 17 lb/100 gal; NIS, AQ 284, AQ 268 […] v/v; INTERLOCK 4 fl oz/acre
Method: as §1

[3] = system: Corn; assay: Greenhouse study for weed control, corn; format: in vivo; settings: Glyphosate 0.375 lb/acre; AMS 17 lb/100 gal; NIS, AQ 284, AQ 268 […] v/v; INTERLOCK 4 fl oz/acre
Method: as §1

[4] = system: Sunflower; assay: Greenhouse study for weed control, sunflower; format: in vivo; settings: Glyphosate 0.375 lb/acre; AMS 17 lb/100 gal; NIS, AQ 284, AQ 268 […] v/v; INTERLOCK 4 fl oz/acre
Method: as §1

[5] = Lecithin addition to sulfuric acid, urea sulfate and AQ 216 (lecithin stability); format: physicochemical; settings: for Notes (result of lecithin addition): on addition
From the text: Lecithin is known to be unstable in a sulfuric acid environment. […] For each reaction with urea sulfate and AQ 216, the urea sulfate was mixed thoroughly or AQ 216 was mixed thoroughly, before the addition of the lecithin composition.

[6] = lecithin composition AIRLINK 50 mL
[7] = lecithin composition LI 700 50 mL
[8] = lecithin composition LIBERATE 50 mL

SMILES	Wheat % Control 18 Days After Application [1]	Average % Control 18 Days After Application [2]	Corn % Control 18 Days After Application [3]	Sunflower % Control 18 Days After Application [4]	reaction with lecithin compositions ([5]; 50 mL of each of the lecithin compositions, equivalent amount of sulfuric acid (3 mL))	Time 1 hour [5, 6]	Time 12 Hours [5, 6]	Notes (result of lecithin addition) ([5]; lecithin composition AIRLINK 50 mL, 3 mL sulfuric acid or 6 mL urea sulfate / AQ 216)	Time 1 hour [5, 7]	Time 12 Hours [5, 7]	Notes (result of lecithin addition) [5, 7]	Time 1 hour [5, 8]	Time 12 Hours [5, 8]	Notes (result of lecithin addition) [5, 8]
O=C(O)CNCP(=O)(O)O [Glyphosate, N-phosphonomethylglycine]	15.0%	13.3%	10.0%	15.0%										
O=S(=O)(O)O [Sulfuric Acid]					forming a precipitate	More precipitate	More precipitate	Dark Precipitate	More precipitate	More precipitate	Dark Precipitate	More precipitate	More precipitate	Dark Precipitate
